According to US20240299385A1 (ReWind Therapeutics NV, priority 2021, published 2024):

Target: T1, human GPR17 receptor (Homo sapiens, UniProt Q13304)
T1 construct: host or cells: HEK-293
Test: Calcium mobilization functional assay (Fluo-8, FLIPR TETRA) in HEK-293 hGPR17 (Gα-q assay)
Type: cell-based
Settings: antagonism of MDL29,951 (~EC80) induced Ca2+ signal; cell line (HEK-293 hGPR17 or HEK-293 Suchi5 hGPR17) not given
Method in brief: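 Fluo-8-loaded HEK-293 hGPR17 cells (60 min dye loading, room temperature) were preincubated with compound for twenty minutes, then challenged with agonist MDL29,951 at ~EC80, 500 nM. Intracellular calcium release via Gα-q was recorded as FLIPR fluorescence for a further 2 minutes; compounds tested in duplicate.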

T1 sequence (Q13304 whole entry): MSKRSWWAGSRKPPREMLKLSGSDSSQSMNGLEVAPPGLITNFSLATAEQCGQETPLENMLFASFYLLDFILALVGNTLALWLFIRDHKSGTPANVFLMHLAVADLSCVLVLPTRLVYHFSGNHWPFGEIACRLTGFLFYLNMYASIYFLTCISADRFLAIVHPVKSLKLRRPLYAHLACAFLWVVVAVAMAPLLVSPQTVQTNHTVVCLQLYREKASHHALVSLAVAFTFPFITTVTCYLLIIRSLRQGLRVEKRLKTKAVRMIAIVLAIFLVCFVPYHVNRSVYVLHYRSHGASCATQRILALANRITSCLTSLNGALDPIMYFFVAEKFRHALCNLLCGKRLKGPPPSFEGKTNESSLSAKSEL

Row | IC50 [µM] | Compound
1 | 0.5 to 5 | COc1nc(C(F)(F)F)ccc1NS(=O)(=O)c1c[nH]c(-c2ccccc2)c1 [Cpd 147, N-[2-methoxy-6-(trifluoromethyl)-3-pyridyl]-5-phenyl-1H-pyrrole-3-sulfonamide]
2 | < 0.5 | O=S(=O)(Nc1cc(F)c(C(F)(F)F)cc1F)c1c[nH]c(-c2ncccc2F)c1 [Cpd 148, N-(2,5-difluoro-4-(trifluoromethyl)phenyl)-5-(3-fluoropyridin-2-yl)-1H-pyrrole-3-sulfonamide]
3 | 0.5 to 5 | O=S(=O)(Nc1cccc2c1OCO2)c1c[nH]c(-c2ccccn2)c1 [Cpd 149, N-(1,3-benzodioxol-4-yl)-5-(2-pyridyl)-1H-pyrrole-3-sulfonamide]
4 | 0.5 to 5 | O=S(=O)(Nc1cc(F)c(C(F)(F)F)cc1F)c1c[nH]c(-c2ncccn2)c1 [Cpd 150, N-[2,5-difluoro-4-(trifluoromethyl)phenyl]-5-pyrimidin-2-yl-1H-pyrrole-3-sulfonamide]
5 | 5 to 50 | O=S(=O)(Nc1ccc(F)cc1F)c1c[nH]cc1Cc1ccccc1 [Cpd 151, 4-benzyl-N-(2,4-difluorophenyl)-1H-pyrrole-3-sulfonamide]
6 | 5 to 50 | O=S(=O)(Nc1ccc(C(F)(F)F)nc1)c1c[nH]cc1Cc1ccccc1 [Cpd 152, 4-benzyl-N-[6-(trifluoromethyl)-3-pyridyl]-1H-pyrrole-3-sulfonamide]
7 | 5 to 50 | O=S(=O)(Nc1ccc(Cl)cc1F)c1c[nH]cc1Cc1ccccc1 [Cpd 153, 4-benzyl-N-(4-chloro-2-fluoro-phenyl)-1H-pyrrole-3-sulfonamide]
8 | 0.5 to 5 | COc1cc(C(F)(F)F)ccc1NS(=O)(=O)c1c[nH]c(-c2ccccn2)c1 [Cpd 154, N-[2-methoxy-4-(trifluoromethyl)phenyl]-5-(2-pyridyl)-1H-pyrrole-3-sulfonamide]
9 | < 0.5 | Cc1cccnc1-c1cc(S(=O)(=O)Nc2cc(F)c(C(F)(F)F)cc2F)c[nH]1 [Cpd 155, N-[2,5-difluoro-4-(trifluoromethyl)phenyl]-5-(3-methyl-2-pyridyl)-1H-pyrrole-3-sulfonamide]
10 | 0.5 to 5 | Cn1ccnc1-c1cc(S(=O)(=O)Nc2cc(F)c(C(F)(F)F)cc2F)c[nH]1 [Cpd 156, N-[2,5-difluoro-4-(trifluoromethyl)phenyl]-5-(1-methylimidazol-2-yl)-1H-pyrrole-3-sulfonamide]
11 | 0.5 to 5 | O=S(=O)(Nc1ccc(OC(F)(F)F)cc1F)c1c[nH]c(-c2ccccn2)c1 [Cpd 157, N-[2-fluoro-4-(trifluoromethoxy)phenyl]-5-(2-pyridyl)-1H-pyrrole-3-sulfonamide]
12 | 0.5 to 5 | O=S(=O)(Nc1cc(F)c(C(F)(F)F)cc1F)c1c[nH]cc1Cc1ccccc1 [Cpd 158, 4-benzyl-N-[2,5-difluoro-4-(trifluoromethyl)phenyl]-1H-pyrrole-3-sulfonamide]
13 | 5 to 50 | O=S(=O)(Nc1ccc(F)cc1F)c1c[nH]c(-c2ncccc2F)c1 [Cpd 160, N-(2,4-difluorophenyl)-5-(3-fluoro-2-pyridyl)-1H-pyrrole-3-sulfonamide]
14 | 5 to 50 | COc1cc(C#N)ccc1NS(=O)(=O)c1c[nH]cc1Cc1ccccc1 [Cpd 161, 4-benzyl-N-(4-cyano-2-methoxy-phenyl)-1H-pyrrole-3-sulfonamide]
15 | 0.5 to 5 | N#Cc1ccc(NS(=O)(=O)c2c[nH]cc2Cc2ccccc2)cc1 [Cpd 162, 4-benzyl-N-(4-cyanophenyl)-1H-pyrrole-3-sulfonamide]
16 | 5 to 50 | O=S(=O)(Nc1ccccc1F)c1c[nH]cc1Cc1ccccc1 [Cpd 163, 4-benzyl-N-(2-fluorophenyl)-1H-pyrrole-3-sulfonamide]
17 | 0.5 to 5 | O=S(=O)(Nc1ncc(Cl)cc1F)c1c[nH]c(-c2ccccn2)c1 [Cpd 164, N-(5-chloro-3-fluoro-2-pyridyl)-5-(2-pyridyl)-1H-pyrrole-3-sulfonamide]
18 | 0.5 to 5 | COc1cc(CC#N)ccc1NS(=O)(=O)c1c[nH]c(-c2ccccc2)c1 [Cpd 165, N-[4-(cyanomethyl)-2-methoxy-phenyl]-5-phenyl-1H-pyrrole-3-sulfonamide]
19 | 0.5 to 5 | N#Cc1cnc(NS(=O)(=O)c2c[nH]c(-c3ccccc3)c2)c(F)c1 [Cpd 166, N-(5-cyano-3-fluoro-2-pyridyl)-5-phenyl-1H-pyrrole-3-sulfonamide]
20 | 0.5 to 5 | COc1cc(Br)cnc1NS(=O)(=O)c1c[nH]c(-c2ccccn2)c1 [Cpd 167, N-(5-bromo-3-methoxy-2-pyridyl)-5-(2-pyridyl)-1H-pyrrole-3-sulfonamide]
21 | 0.5 to 5 | O=S(=O)(Nc1ncc(Br)cc1F)c1c[nH]c(-c2ccccc2)c1 [Cpd 168, N-(5-bromo-3-fluoro-2-pyridyl)-5-phenyl-1H-pyrrole-3-sulfonamide]
22 | 5 to 50 | N#CCc1cnc(NS(=O)(=O)c2c[nH]c(-c3ccccc3)c2)c(F)c1 [Cpd 169, N-[5-(cyanomethyl)-3-fluoro-2-pyridyl]-5-phenyl-1H-pyrrole-3-sulfonamide]

Row | IC50 [µM] | Compound
23 | 0.5 to 5 | COc1cccnc1-c1cc(S(=O)(=O)Nc2cc(F)c(C(F)(F)F)cc2F)c[nH]1 [Cpd 170, N-[2,5-difluoro-4-(trifluoromethyl)phenyl]-5-(3-methoxy-2-pyridyl)-1H-pyrrole-3-sulfonamide]
24 | < 0.5 | N#Cc1ccc(NS(=O)(=O)c2c[nH]cc2Cc2cccc(F)c2)c(F)c1 [Cpd 171, N-(4-cyano-2-fluoro-phenyl)-4-[(3-fluorophenyl)methyl]-1H-pyrrole-3-sulfonamide]
25 | < 0.5 | Cc1cc(F)c(NS(=O)(=O)c2c[nH]c(-c3ccccn3)c2)cc1F [Cpd 173, N-(2,5-difluoro-4-methyl-phenyl)-5-(2-pyridyl)-1H-pyrrole-3-sulfonamide]
26 | 5 to 50 | O=S(=O)(Nc1cc(F)c(-c2ccccc2)cc1F)c1c[nH]c(-c2ccccn2)c1 [Cpd 174, N-(2,5-difluoro-4-phenyl-phenyl)-5-(2-pyridyl)-1H-pyrrole-3-sulfonamide]
27 | 0.5 to 5 | COc1cc(C(F)(F)F)cnc1NS(=O)(=O)c1c[nH]c(-c2ccccc2)c1 [Cpd 175, N-[3-methoxy-5-(trifluoromethyl)-2-pyridyl]-5-phenyl-1H-pyrrole-3-sulfonamide]
28 | 0.5 to 5 | O=S(=O)(Nc1ncc(C(F)(F)F)cc1F)c1c[nH]c(-c2ccccc2F)c1 [Cpd 176, 5-(2-fluorophenyl)-N-[3-fluoro-5-(trifluoromethyl)-2-pyridyl]-1H-pyrrole-3-sulfonamide]
29 | < 0.5 | N#Cc1ccc(NS(=O)(=O)c2c[nH]cc2Cc2ccc(F)cc2)c(F)c1 [Cpd 177, N-(4-cyano-2-fluoro-phenyl)-4-[(4-fluorophenyl)methyl]-1H-pyrrole-3-sulfonamide]
30 | 0.5 to 5 | O=S(=O)(Nc1cc(F)c(F)cc1F)c1c[nH]c(-c2ccccn2)c1 [Cpd 179, 5-(2-pyridyl)-N-(2,4,5-trifluorophenyl)-1H-pyrrole-3-sulfonamide]
31 | 0.5 to 5 | COc1cccc(F)c1-c1cc(S(=O)(=O)Nc2cc(F)c(C(F)(F)F)cc2F)c[nH]1 [Cpd 180, N-[2,5-difluoro-4-(trifluoromethyl)phenyl]-5-(2-fluoro-6-methoxy-phenyl)-1H-pyrrole-3-sulfonamide]
32 | 0.5 to 5 | O=S(=O)(Nc1ccc(Cl)cc1F)c1c[nH]c(-c2ccccn2)c1 [Cpd 181, N-(4-chloro-2-fluoro-phenyl)-5-(2-pyridyl)-1H-pyrrole-3-sulfonamide]
33 | 0.5 to 5 | N#Cc1ccc(NS(=O)(=O)c2c[nH]cc2Cc2ccccc2F)c(F)c1 [Cpd 182, N-(4-cyano-2-fluoro-phenyl)-4-[(2-fluorophenyl)methyl]-1H-pyrrole-3-sulfonamide]
34 | 0.5 to 5 | COc1cc(F)c(NS(=O)(=O)c2c[nH]c(-c3ccccn3)c2)cc1F [Cpd 183, N-(2,5-difluoro-4-methoxy-phenyl)-5-(2-pyridyl)-1H-pyrrole-3-sulfonamide]
35 | 0.5 to 5 | N#Cc1ccc(NS(=O)(=O)c2c[nH]cc2Cc2cccnc2)c(F)c1 [Cpd 184, N-(4-cyano-2-fluoro-phenyl)-4-(3-pyridylmethyl)-1H-pyrrole-3-sulfonamide]
36 | 0.5 to 5 | C#Cc1cc(F)c(NS(=O)(=O)c2c[nH]c(-c3ccccn3)c2)cc1F [Cpd 185, N-(4-ethynyl-2,5-difluoro-phenyl)-5-(2-pyridyl)-1H-pyrrole-3-sulfonamide]
37 | 0.5 to 5 | O=S(=O)(Nc1ccc(C(F)(F)F)nc1F)c1c[nH]c(-c2ccccc2)c1 [Cpd 186, N-[2-fluoro-6-(trifluoromethyl)-3-pyridyl]-5-phenyl-1H-pyrrole-3-sulfonamide]
38 | 0.5 to 5 | O=S(=O)(Nc1cc2cccnc2cc1F)c1c[nH]c(-c2ccccc2)c1 [Cpd 187, N-(7-fluoro-6-quinolyl)-5-phenyl-1H-pyrrole-3-sulfonamide]
39 | 0.5 to 5 | O=S(=O)(Nc1ccc(OC(F)F)nc1F)c1c[nH]c(-c2ccccc2)c1 [Cpd 188, N-[6-(difluoromethoxy)-2-fluoro-3-pyridyl]-5-phenyl-1H-pyrrole-3-sulfonamide]
40 | 0.5 to 5 | O=S(=O)(Nc1cc(F)c(C(F)(F)F)cc1F)c1c[nH]c(-c2ccc(F)cn2)c1 [Cpd 189, N-[2,5-difluoro-4-(trifluoromethyl)phenyl]-5-(5-fluoro-2-pyridyl)-1H-pyrrole-3-sulfonamide]
41 | 0.5 to 5 | O=S(=O)(Nc1ccc(C(F)(F)F)c(F)c1)c1c[nH]c(-c2ccccn2)c1 [Cpd 190, N-[3-fluoro-4-(trifluoromethyl)phenyl]-5-(2-pyridyl)-1H-pyrrole-3-sulfonamide]
42 | < 0.5 | COc1ncccc1-c1cc(S(=O)(=O)Nc2cc(F)c(C(F)(F)F)cc2F)c[nH]1 [Cpd 191, N-[2,5-difluoro-4-(trifluoromethyl)phenyl]-5-(2-methoxy-3-pyridyl)-1H-pyrrole-3-sulfonamide]
43 | 5 to 50 | O=S(=O)(Nc1ncc(Cl)cc1F)c1c[nH]cc1Cc1ccccc1 [Cpd 192, 4-benzyl-N-(5-chloro-3-fluoro-2-pyridyl)-1H-pyrrole-3-sulfonamide]
44 | 0.5 to 5 | O=S(=O)(Nc1cc(F)c(Br)cc1F)c1c[nH]cc1Cc1ccccc1 [Cpd 193, 4-benzyl-N-(4-bromo-2,5-difluoro-phenyl)-1H-pyrrole-3-sulfonamide]
